# Assay results published in publication PMC8188729 (Nature, 2020).
# Values joined by “and” are separate entries in the source; they are usually repeats but may differ in a detail not shown here. Equal values may be shown once. Read-outs that look alike come from different tables or passages of the source.
# Experiments:
# HIV-1BaL = experiment: p24 endpoint antiviral assay in primary human CD4+ T-lymphocytes; format: cell-based; details: Human immunodeficiency virus 1, CD4+ T, read-out: mean EC50
# [1] = test system: single-cycle reporter HIV-1; experiment: microbe, parasite or virus in culture; format: cell-based
# HIV-1 PR = HIV-1 PR (Human immunodeficiency virus type 1 group M subtype B, UniProt P04585); experiment: HIV-1 PR cleavage activity in vitro; format: biochemical
# Cytotoxicity assay [2] = format: cell-based; details: human, Gal-HepG2 cells
# Cytotoxicity assay [3] = format: cell-based; details: human, Gal-PC-3 cells
# Cytotoxicity assay [4] = format: cell-based; details: human, MRC-5 cells
# Cytotoxicity assay [5] = format: cell-based; details: human, primary human hepatocytes
# Cytotoxicity assay [6] = format: cell-based; details: human, quiescent PBMCs
# Cytotoxicity assay [7] = format: cell-based, human; details: human, stimulated PBMCs
# Stimulated PBMCs = experiment: Cytotoxicity assay; format: cell-based, human; details: PBMCs
# Cytotoxicity assay [8] = format: cell-based; details: human, primary CD4+ T-lymphocytes
# Cytotoxicity assay [9] = format: cell-based; details: human, monocyte-derived macrophages
# Gag polyprotein = Gag polyprotein (Human immunodeficiency virus type 1 group M subtype B, UniProt P12493); experiment: biochemical; format: binding
# CA monomer = CA monomer (Human immunodeficiency virus type 1 group M subtype B, UniProt P03348); experiment: biochemical; format: binding
# CA hexamer_M66I = CA hexamer_M66I (Human immunodeficiency virus type 1 group M subtype B, UniProt P12493, A146C/E177C/M198I/M317A/W316A); experiment: Surface plasmon resonance binding assay; design: species or system HIV-1
# HIV-1 CA mutants = format: cell-based; details: mutant/WT EC50 ratio
# [10] = Study GS-US-200-4070: safety and tolerability in healthy participants; format: in vivo, human; details: for Acne / Any AE / Back pain / Dizziness / Headache / Injection site bruising / Injection site erythema / Injection site induration / Injection site nodule / Injection site pain / Injection site pruritus / Injection site swelling / Nausea / Oropharyngeal pain / Skin mass / Viral upper respiratory tract infection: healthy
# HIV-1 = format: in vivo; details: for Maximum HIV-1 RNA change through day 9: individual participants
# HIV-1 capsid = experiment: Study GS-US-200-4072: HIV-1 resistance analyses; details: in vivo
# HIV-1 CA protein = format: biochemical; details: 20 μM CA, 2 M NaCl
# HIV-2 isolates = experiment: 7-day RT endpoint antiviral assay in human PBMCs, HIV-2 isolates; details: Human immunodeficiency virus 2, PBMC, read-out: mean EC50
# clinical HIV-1 isolates = experiment: 7-day RT endpoint antiviral assay in human PBMCs, clinical HIV-1 isolates; details: Human immunodeficiency virus 1, PBMC
# HIV-1IIIb = experiment: In vitro two-drug combination study in HIV-1IIIB-infected MT-2 cells
structure (smiles),measurement,setting,value
CC(C)(C#Cc1ccc(-c2ccc(Cl)c3c(NS(C)(=O)=O)nn(CC(F)(F)F)c23)c([C@H](Cc2cc(F)cc(F)c2)NC(=O)Cn2nc(C(F)(F)F)c3c2C(F)(F)[C@@H]2C[C@H]32)n1)S(C)(=O)=O [GS-6207],EC50,HIV-1BaL,0.032 nM
same,EC50,[1]; Human immunodeficiency virus 1,0.025 nM
same,EC50,"[1]; Human immunodeficiency virus 1, HEK-293T",0.439 nM
same,EC50,"[1]; Human immunodeficiency virus 1, MT2",0.023 nM
same,IC50,HIV-1 PR,> 50000 nM
same,CC50,Cytotoxicity assay [2],> 44400 nM
same,CC50,Cytotoxicity assay [3],> 44400 nM
same,CC50,Cytotoxicity assay [4],> 44400 nM
same,CC50,Cytotoxicity assay [5],> 50000 nM
same,CC50,Cytotoxicity assay [6],> 44400 nM
same,CC50,Cytotoxicity assay [7],> 50000 nM
same,therapeutic index (CC50/EC50),Stimulated PBMCs,"> 1,000,000"
same,CC50,Cytotoxicity assay [8],> 50000 nM
same,CC50,Cytotoxicity assay [9],> 50000 nM
same,Kd,Gag polyprotein,1.1 nM
same,Kd,CA monomer,2.5 nM
same,Kd,CA hexamer_M66I,60 nM
same,koff,CA hexamer_M66I; CA hexamer_M66I,2.6 ± 0.3 x 10^−3 s^−1
same,kon,CA hexamer_M66I; CA hexamer_M66I,6 ± 4 x 10^4 M^−1s^−1
same,Fold GS-6207 resistance,HIV-1 CA mutants; HIV-1 CA K70N,24
same,Fold GS-6207 resistance,HIV-1 CA mutants; HIV-1 CA L56I,239
same,Fold GS-6207 resistance,HIV-1 CA mutants; HIV-1 CA M66I,">3,226"
same,Fold GS-6207 resistance,HIV-1 CA mutants; HIV-1 CA N74D,22
same,Fold GS-6207 resistance,HIV-1 CA mutants; HIV-1 CA Q67H,6
same,Fold GS-6207 resistance,HIV-1 CA mutants; HIV-1 CA WT,1
same,Acne,[10]; 30 mg (n = 8),0 n (%)
same,Any AE,[10]; 30 mg (n = 8),4 (50) n (%)
same,Back pain,[10]; 30 mg (n = 8),0 n (%)
same,Dizziness,[10]; 30 mg (n = 8),0 n (%)
same,Headache,[10]; 30 mg (n = 8),2 (25) n (%)
same,Injection site bruising,[10]; 30 mg (n = 8),0 n (%)
same,Injection site erythema,[10]; 30 mg (n = 8),1 (13) n (%)
same,Injection site induration,[10]; 30 mg (n = 8),0 n (%)
same,Injection site nodule,[10]; 30 mg (n = 8),0 n (%)
same,Injection site pain,[10]; 30 mg (n = 8),0 n (%)
same,Injection site pruritus,[10]; 30 mg (n = 8),1 (13) n (%)
same,Injection site swelling,[10]; 30 mg (n = 8),1 (13) n (%)
same,Nausea,[10]; 30 mg (n = 8),1 (13) n (%)
same,Oropharyngeal pain,[10]; 30 mg (n = 8),1 (13) n (%)
same,Skin mass,[10]; 30 mg (n = 8),0 n (%)
same,Viral upper respiratory tract infection,[10]; 30 mg (n = 8),0 n (%)
same,Acne,[10]; 100 mg (n = 8),0 n (%)
same,Any AE,[10]; 100 mg (n = 8),8 (100) n (%)
same,Back pain,[10]; 100 mg (n = 8),0 n (%)
same,Dizziness,[10]; 100 mg (n = 8),0 n (%)
same,Headache,[10]; 100 mg (n = 8),1 (13) n (%)
same,Injection site bruising,[10]; 100 mg (n = 8),0 n (%)
same,Injection site erythema,[10]; 100 mg (n = 8),5 (63) n (%)
same,Injection site induration,[10]; 100 mg (n = 8),0 n (%)
same,Injection site nodule,[10]; 100 mg (n = 8),5 (63) n (%)
same,Injection site pain,[10]; 100 mg (n = 8),3 (38) n (%)
same,Injection site pruritus,[10]; 100 mg (n = 8),0 n (%)
same,Injection site swelling,[10]; 100 mg (n = 8),5 (63) n (%)
same,Nausea,[10]; 100 mg (n = 8),0 n (%)
same,Oropharyngeal pain,[10]; 100 mg (n = 8),0 n (%)
same,Skin mass,[10]; 100 mg (n = 8),0 n (%)
same,Viral upper respiratory tract infection,[10]; 100 mg (n = 8),0 n (%)
same,Acne,[10]; 300 mg (n = 8),0 n (%)
same,Any AE,[10]; 300 mg (n = 8),7 (88) n (%)
same,Back pain,[10]; 300 mg (n = 8),2 (25) n (%)
same,Dizziness,[10]; 300 mg (n = 8),1 (13) n (%)
same,Headache,[10]; 300 mg (n = 8),2 (25) n (%)
same,Injection site bruising,[10]; 300 mg (n = 8),1 (13) n (%)
same,Injection site erythema,[10]; 300 mg (n = 8),6 (75) n (%)
same,Injection site induration,[10]; 300 mg (n = 8),6 (75) n (%)
same,Injection site nodule,[10]; 300 mg (n = 8),3 (38) n (%)
same,Injection site pain,[10]; 300 mg (n = 8),6 (75) n (%)
same,Injection site pruritus,[10]; 300 mg (n = 8),1 (13) n (%)
same,Injection site swelling,[10]; 300 mg (n = 8),1 (13) n (%)
same,Nausea,[10]; 300 mg (n = 8),1 (13) n (%)
same,Oropharyngeal pain,[10]; 300 mg (n = 8),0 n (%)
same,Skin mass,[10]; 300 mg (n = 8),1 (13) n (%)
same,Viral upper respiratory tract infection,[10]; 300 mg (n = 8),0 n (%)
same,Acne,[10]; 450 mg (n = 8),2 (25) n (%)
same,Any AE,[10]; 450 mg (n = 8),6 (75) n (%)
same,Back pain,[10]; 450 mg (n = 8),0 n (%)
same,Dizziness,[10]; 450 mg (n = 8),1 (13) n (%)
same,Headache,[10]; 450 mg (n = 8),0 n (%)
same,Injection site bruising,[10]; 450 mg (n = 8),0 n (%)
same,Injection site erythema,[10]; 450 mg (n = 8),3 (38) n (%)
same,Injection site induration,[10]; 450 mg (n = 8),2 (25) n (%)
same,Injection site nodule,[10]; 450 mg (n = 8),1 (13) n (%)
same,Injection site pain,[10]; 450 mg (n = 8),3 (38) n (%)
same,Injection site pruritus,[10]; 450 mg (n = 8),1 (13) n (%)
same,Injection site swelling,[10]; 450 mg (n = 8),0 n (%)
same,Nausea,[10]; 450 mg (n = 8),0 n (%)
same,Oropharyngeal pain,[10]; 450 mg (n = 8),0 n (%)
same,Skin mass,[10]; 450 mg (n = 8),1 (13) n (%)
same,Viral upper respiratory tract infection,[10]; 450 mg (n = 8),2 (25) n (%)
same,safety and tolerability,"[10]; single SC 30 to 450 mg, healthy participants",generally safe and well tolerated
same,Maximum HIV-1 RNA change through day 9,HIV-1; 20 mg,−0.83 log10 copies ml^−1 and −1.58 log10 copies ml^−1 and −1.74 log10 copies ml^−1 and −1.43 log10 copies ml^−1 and −1.33 log10 copies ml^−1 and −1.21 log10 copies ml^−1
same,Maximum HIV-1 RNA change through day 9,HIV-1; 50 mg,−1.55 log10 copies ml^−1 and −1.61 log10 copies ml^−1 and −2.32 log10 copies ml^−1 and −1.16 log10 copies ml^−1 and −1.73 log10 copies ml^−1 and −2.39 log10 copies ml^−1
same,Maximum HIV-1 RNA change through day 9,HIV-1; 150 mg,−2.06 log10 copies ml^−1 and −1.68 log10 copies ml^−1 and −1.86 log10 copies ml^−1 and −1.49 log10 copies ml^−1 and −1.87 log10 copies ml^−1 and −1.62 log10 copies ml^−1
same,Maximum HIV-1 RNA change through day 9,HIV-1; 450 mg,−2.32 log10 copies ml^−1 and −2.86 log10 copies ml^−1 and −2.11 log10 copies ml^−1 and −1.83 log10 copies ml^−1 and −1.58 log10 copies ml^−1 and −2.52 log10 copies ml^−1
same,mean maximum reduction in plasma HIV-1 RNA through 9 days,HIV-1; single 20 mg SC,1.35 log10
same,mean maximum reduction in plasma HIV-1 RNA through 9 days,HIV-1; single 50 mg SC,1.79 log10
same,mean maximum reduction in plasma HIV-1 RNA through 9 days,HIV-1; single 150 mg SC,1.76 log10
same,mean maximum reduction in plasma HIV-1 RNA through 9 days,HIV-1; single 450 mg SC,2.20 log10 and 2.2 log10
same,decrease in phenotypic susceptibility,HIV-1 capsid,1.6 fold
same,rate and extent of in vitro capsid assembly,HIV-1 CA protein,dose-dependent increase in the rate and extent of in vitro capsid assembly
same,EC50,HIV-2 isolates,0.885 nM
same,EC50,clinical HIV-1 isolates; read-out: EC50 range,0.02 to 0.16 nM
same,EC50,clinical HIV-1 isolates; read-out: mean EC50,0.05 nM
same,Synergy volume,HIV-1IIIb,18 ± 8 μM^2.%
